Test results: patent US10251395B2, “Substituted furano-/thienocycloalkylamino-2-pyrimidine derivatives and use thereof for controlling undesired plant growth” (Bayer CropScience Aktiengesellschaft, priority 2015, dated 2019)

What was measured:
[1] = system: Stellaria media; assay: Post-emergence herbicidal effect; type: in vivo; details: assessed visually after about 3 weeks vs untreated controls
Summary of the method: (§1)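 Ratings are visual percentages taken around 3 weeks after treatment, compared with untreated plants. Treatment consisted of an aqueous spray of WP or EC formulations, with 0.2% wetting agent, onto one-leaf-stage weeds raised from seed in sandy loam.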

[2] = system: Amaranthus retroflexus; assay: Post-emergence herbicidal effect; type: in vivo; details: assessed visually after about 3 weeks vs untreated controls
Summary of the method: as §1

[3] = system: Alopecurus myosuroides; assay: Post-emergence herbicidal effect; type: in vivo; details: assessed visually after about 3 weeks vs untreated controls
Summary of the method: as §1

[4] = system: Veronica persica; assay: Post-emergence herbicidal effect; type: in vivo; details: assessed visually after about 3 weeks vs untreated controls
Summary of the method: as §1

[5] = system: Ipomoea purpurea; assay: Post-emergence herbicidal effect; type: in vivo; details: 320 g/ha, assessed visually after about 3 weeks vs untreated controls
Summary of the method: as §1

[6] = system: Viola tricolor; assay: Post-emergence herbicidal effect; type: in vivo; details: assessed visually after about 3 weeks vs untreated controls
Summary of the method: as §1

[7] = system: Setaria viridis; assay: Post-emergence herbicidal effect; type: in vivo; details: assessed visually after about 3 weeks vs untreated controls
Summary of the method: as §1

[8] = system: Abutilon theophrasti; assay: Post-emergence herbicidal effect; type: in vivo; details: 320 g/ha, assessed visually after about 3 weeks vs untreated controls
Summary of the method: as §1

[9] = system: Echinochloa crus-galli; assay: Post-emergence herbicidal effect; type: in vivo; details: assessed visually after about 3 weeks vs untreated controls
Summary of the method: as §1

[10] = system: Lolium multiflorum; assay: Post-emergence herbicidal effect; type: in vivo; details: assessed visually after about 3 weeks vs untreated controls
Summary of the method: as §1

[11] = system: Avena fatua; assay: Post-emergence herbicidal effect; type: in vivo; details: 320 g/ha, assessed visually after about 3 weeks vs untreated controls
Summary of the method: as §1

[12] = system: Polygonum convolvulus; assay: Post-emergence herbicidal effect; type: in vivo; details: assessed visually after about 3 weeks vs untreated controls
Summary of the method: as §1

[13] = system: Stellaria media; assay: Pre-emergence herbicidal effect; type: in vivo; details: scored visually after 3 weeks
Summary of the method: (§2)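 Seeds sown in sandy loam in wood-fiber pots and covered with soil; WP or EC formulations applied to the soil surface as aqueous suspension or emulsion at 600 to 800 L/ha water with 0.2% wetting agent. Greenhouse, 3 weeks; damage scored visually versus untreated controls (100% = plants died, 0% = like control).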

[14] = system: Amaranthus retroflexus; assay: Pre-emergence herbicidal effect; type: in vivo; details: scored visually after 3 weeks
Summary of the method: as §2

[15] = system: Alopecurus myosuroides; assay: Pre-emergence herbicidal effect; type: in vivo; details: scored visually after 3 weeks
Summary of the method: as §2

[16] = system: Veronica persica; assay: Pre-emergence herbicidal effect; type: in vivo; details: scored visually after 3 weeks
Summary of the method: as §2

[17] = system: Ipomoea purpurea; assay: Pre-emergence herbicidal effect; type: in vivo; details: Dosage 320 g/ha, scored visually after 3 weeks
Summary of the method: as §2

[18] = system: Viola tricolor; assay: Pre-emergence herbicidal effect; type: in vivo; details: scored visually after 3 weeks
Summary of the method: as §2

[19] = system: Matricaria inodora; assay: Pre-emergence herbicidal effect; type: in vivo; details: scored visually after 3 weeks
Summary of the method: as §2

[20] = system: Setaria viridis; assay: Pre-emergence herbicidal effect; type: in vivo; details: scored visually after 3 weeks
Summary of the method: as §2

[21] = system: Abutilon theophrasti; assay: Pre-emergence herbicidal effect; type: in vivo; details: Dosage 320 g/ha, scored visually after 3 weeks
Summary of the method: as §2

[22] = system: Echinochloa crus-galli; assay: Pre-emergence herbicidal effect; type: in vivo; details: scored visually after 3 weeks
Summary of the method: as §2

[23] = system: Lolium multiflorum; assay: Pre-emergence herbicidal effect; type: in vivo; details: scored visually after 3 weeks
Summary of the method: as §2

[24] = system: Polygonum convolvulus; assay: Pre-emergence herbicidal effect; type: in vivo; details: scored visually after 3 weeks
Summary of the method: as §2

[25] = logP (HCOOH); type: physicochemical; details: HCOOH
From the text: Table 2 (physicochemical characterization of selected synthesis examples)

In the case of Nc1nc(N[C@@H]2CCCc3sccc32)ncc1C(F)(F)F [compound 46], the “post-emergence efficacy STEME” value ([1]; 80 g/ha) is reported as 100%, the “post-emergence efficacy STEME” value ([1]; 320 g/ha) is reported as 100% and the “post-emergence efficacy AMARE” value ([2]; 80 g/ha) is reported as 100%. For the same compound, the “post-emergence efficacy AMARE” value ([2]; 320 g/ha) was 100%, the “post-emergence efficacy ALOMY” value ([3]; 80 g/ha) was 90% and the “post-emergence efficacy ALOMY” value ([3]; 320 g/ha) was 100%. For the same compound, the “post-emergence efficacy VERPE” value ([4]; 80 g/ha) was 80%, the “post-emergence efficacy VERPE” value ([4]; 320 g/ha) was 100% and the “post-emergence efficacy PHBPU” value [5] was 80%. The “post-emergence efficacy VIOTR” value ([6]; 80 g/ha) was 80%, the “post-emergence efficacy VIOTR” value ([6]; 320 g/ha) was 100% and the “post-emergence efficacy SETVI” value ([7]; 80 g/ha) was 90%. The “post-emergence efficacy SETVI” value ([7]; 320 g/ha) was 90%, the “post-emergence efficacy ABUTH” value [8] was 40% and the “post-emergence efficacy ECHCG” value ([9]; 80 g/ha) was 100%. The “post-emergence efficacy ECHCG” value ([9]; 320 g/ha) was 100%, the “post-emergence efficacy LOLMU” value ([10]; 80 g/ha) was 80% and the “post-emergence efficacy LOLMU” value ([10]; 320 g/ha) was 100%. For the same compound, the “post-emergence efficacy AVEFA” value [11] was 80%, the “post-emergence efficacy POLCO” value ([12]; 80 g/ha) was 90% and the “post-emergence efficacy POLCO” value ([12]; 320 g/ha) was 90%. For the same compound, the “STEME pre-emergence efficacy (herbicidal activity)” value ([13]; Dosage 80 g/ha) was 100%, the “STEME pre-emergence efficacy (herbicidal activity)” value ([13]; Dosage 320 g/ha) was 100% and the “AMARE pre-emergence efficacy (herbicidal activity)” value ([14]; Dosage 80 g/ha) was 100%. The “AMARE pre-emergence efficacy (herbicidal activity)” value ([14]; Dosage 320 g/ha) was 100%, the “ALOMY pre-emergence efficacy (herbicidal activity)” value ([15]; Dosage 80 g/ha) was 100% and the “ALOMY pre-emergence efficacy (herbicidal activity)” value ([15]; Dosage 320 g/ha) was 100%. For the same compound, the “VERPE pre-emergence efficacy (herbicidal activity)” value ([16]; Dosage 80 g/ha) was 100%, the “VERPE pre-emergence efficacy (herbicidal activity)” value ([16]; Dosage 320 g/ha) was 100% and the “PHBPU pre-emergence efficacy (herbicidal activity)” value [17] was 100%. For the same compound, the “VIOTR pre-emergence efficacy (herbicidal activity)” value ([18]; Dosage 80 g/ha) was 100%, the “VIOTR pre-emergence efficacy (herbicidal activity)” value ([18]; Dosage 320 g/ha) was 100% and the “MATIN pre-emergence efficacy (herbicidal activity)” value ([19]; Dosage 80 g/ha) was 100%. For the same compound, the “MATIN pre-emergence efficacy (herbicidal activity)” value ([19]; Dosage 320 g/ha) was 100%, the “SETVI pre-emergence efficacy (herbicidal activity)” value ([20]; Dosage 80 g/ha) was 100% and the “SETVI pre-emergence efficacy (herbicidal activity)” value ([20]; Dosage 320 g/ha) was 100%. For the same compound, the “ABUTH pre-emergence efficacy (herbicidal activity)” value [21] was 80%, the “ECHCG pre-emergence efficacy (herbicidal activity)” value ([22]; Dosage 80 g/ha) was 100% and the “ECHCG pre-emergence efficacy (herbicidal activity)” value ([22]; Dosage 320 g/ha) was 100%. For the same compound, the “LOLMU pre-emergence efficacy (herbicidal activity)” value ([23]; Dosage 80 g/ha) was 80%, the “LOLMU pre-emergence efficacy (herbicidal activity)” value ([23]; Dosage 320 g/ha) was 100% and the “POLCO pre-emergence efficacy (herbicidal activity)” value ([24]; Dosage 80 g/ha) was 90%. For the same compound, the “POLCO pre-emergence efficacy (herbicidal activity)” value ([24]; Dosage 320 g/ha) was 100% and the “logP (HCOOH)” value [25] was “oily; logP (HCOOH): 1.91; 1H NMR (CDCl3, 400 MHZ, δ in ppm): 1.80-1.95 (m,”.
